The results in this text go back to PMC9068772, “Discovery of first-in-class nanomolar inhibitors of heptosyltransferase I reveals a new aminoglycoside target and potential alternative mechanism of action” (Scientific Reports, 2022).

Several values for one entry are separate records, joined by “and”; a condition that tells them apart may be missing. Identical values can stand only once. Entries after “also recorded” stand apart in the source; their conditions may differ. Some results are limits rather than exact numbers.

For assay [1], the target named is T1, HepI R61A (Escherichia coli, UniProt P24173, R61A).
T1 construct: made in house; host or cells: E. coli One Shot BL-21-AI (stated for HepI in general)
T1 sequence (P24173 whole entry R61A): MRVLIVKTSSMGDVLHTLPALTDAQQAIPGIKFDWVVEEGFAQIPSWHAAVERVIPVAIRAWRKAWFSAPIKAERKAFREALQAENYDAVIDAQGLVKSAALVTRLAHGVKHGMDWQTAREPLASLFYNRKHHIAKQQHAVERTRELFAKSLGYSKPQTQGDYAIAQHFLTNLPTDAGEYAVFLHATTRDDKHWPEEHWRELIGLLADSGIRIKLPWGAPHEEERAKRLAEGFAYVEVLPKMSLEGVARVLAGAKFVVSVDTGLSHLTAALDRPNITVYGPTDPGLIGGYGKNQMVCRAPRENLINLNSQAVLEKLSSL
Briefly: HepI inhibition, ADP/NADH coupled assay (R61A mutant). Type of assay: biochemical, E. coli K12. As to the method:
(§1) As previously reported[11],[14],[15], an ADP/NADH coupled assay was used to monitor HepI activity by monitoring the absorbance change at 340 nm at 37 °C on a Cary Bio 100 UV–Vis Spectrometer. Under normal conditions, the assay buffer was composed of 50 mM HEPES, 50 mM KCl, 10 mM MgCl2, pH 7.5. The coupled enzyme reaction additionally contained 100 μM phosphoenolpyruvate, 100 μM NADH, 100 μM dithiothreitol (DTT) and 0.05 U/μL of both pyruvate kinase and lactate dehydrogenase. 100 μM ADPH was used when ODLA concentration was varied and 100 μM ODLA was used when ADPH was varied. Once a stable baseline was established (~ 5 min), the reaction was initiated by addition of HepI to a final concentration of 50 nM or 100 nM (for high and lower substrate concentrations respectively) and all reported reaction rates are after background subtraction. When running 12 samples at once, plastic cuvette stirs and a repeat pipettor was used to inject 200 μL enzyme. Inhibition of HepI was monitored using the same ADP/NADH coupled assay, all conditions of the assay were the same as previously described unless otherwise stated. Ki values for each of the compounds were determined by varying compound final concentration from 100 μm to 10 nm, and a final concentration of 10 μM ODLA. Competition assays against ADPH were done with excess ODLA (100 μM) and varying ADPH from 2–0.25 μM. Competition assays against ODLA were done with excess ADPH (100 μM) and varying ODLA from 2–0.25 μM. Reactions were started with addition of enzyme and inhibitor was varied from 30–0.01 μM. Kinetics were fit to Lineweaver-Burke (Eq. 1), competitive (Eq. 2), non-competitive (Eq. 3), mixed (Eq. 4), Dixon (Eq. 5), or Cornish-Bowden (Eq. 6) models. All fitting and plotting was done through MATLAB R2018A.1 1/V1/[S]=KM/Vmax[S]+1/Vmax 2 V[S]=Vmax[S]/KM1+[I]/Ki+[S] 3 V[S]=Vmax[S]/1+([I]/Ki)/KM+[S] 4 V[S]=Vmax[S]/KM(1+[I]/Ki)+[S](1+[I]/αKi) 5 1/V[I]=KM1+I/Ki+[S]1+I/αKi/Vmax[S] 6 [S]/V[I]=KM1+I/Ki+[S]1+I/αKi/Vmax

In assay [2] the target is T2, HepI R63A (Escherichia coli, UniProt P24173, R63A).
T2 construct: made in house; host or cells: E. coli One Shot BL-21-AI (stated for HepI in general)
T2 sequence (P24173 whole entry R63A): as the sequence (P24173 whole entry R61A) above, with A61R, R63A counted along it
Briefly: HepI inhibition, ADP/NADH coupled assay (R63A mutant). Type of assay: biochemical, E. coli K12. The method, then:
as §1

In assay [3] the target is T3, HepI K64A (Escherichia coli, UniProt P24173, K64A).
T3 construct: made in house; host or cells: E. coli One Shot BL-21-AI (stated for HepI in general)
T3 sequence (P24173 whole entry K64A): as the sequence (P24173 whole entry R61A) above, with A61R, K64A counted along it
Briefly: HepI inhibition, ADP/NADH coupled assay (K64A mutant). Format: biochemical, E. coli K12. The method, then:
as §1

Assay [4] has as its target T4, HepI (Escherichia coli, UniProt P24173).
T4 construct: made in house; host or cells: E. coli One Shot BL-21-AI
The assay is described as follows: Circular dichroism thermal melt of HepI. Format: binding, E. coli K12. The following applies: CD melt; for Increase in unfolding compared to apo HepI: HepI plus inhibitor, no ODLA; for Difference in melting temperature of HepI•ODLA complex caused by inhibitor: destabilization of HepI•ODLA. The method, then: Circular dichroism melt experiments were performed in a Jasco J-810 spectropolarimeter in Starna 21-Q-2 cells (minimum volume 400 µL) sealed with Teflon tape to prevent evaporation. Parameters include 3 accumulations of data collected between 195–275 nm as a function of temperature (10–95 °C with 5° increments) at a ramp rate of 2°/min and a scanning rate of 50 nm/min. Samples were prepared by diluting a mixture of 5 μM HepI and some combination of 250 μM substrate/product and/or 100 μM inhibitor in a buffer of 10 mM Tris–HCl and 100 mM KCl (pH = 7.5). CD data was analyzed via in house script written in MATLAB R2018A that average a set of triplicate data, normalizes to a percent unfolded (assuming the protein is fully folded at 5 °C) at 222 nm as a function of temperature and fits to a sigmoid curve to determine the melt temperature (TM).

For assay [5], the target named is T4, HepI. Briefly: Intrinsic tryptophan fluorescence of HepI. Format: binding, E. coli K12. The following applies: for Blue shift of HepI tryptophan emission λmax: HepI plus ligand alone, vs apo; for Blue shift of HepI tryptophan emission λmax with ODLA and inhibitor: inhibitor added to HepI•ODLA complex. The method, then: Fluorescence spectra were measured in triplicate at room temperature using 200 μL samples containing 1 μm HepI, in a 10 mm HEPES, 50 mm KCl, and 10 mm MgCl2, pH = 7.5 buffer. Samples were contained in Starna 45-Q-3 cells (minimum volume 200 µL). Substrate and inhibitor concentrations were 100 μM. All measurements were taken using a Fluoromax-4 fluorometer with an excitation slit bandpass of 2 nm and an emission slit bandpass of 3 nm (λex = 290 nm, λem = 310–450 nm). The data was subtracted from blanks, normalized and fit to a lognormal distribution (Eq. 7)[36] to determine the emission maximum (λmax) with in house scripts written in MATLAB R2018A.7 Iλ=Imax·e^-ln2/ln^2ρ·ln^2(a-λ/a-λmax)

Assay [6] deals with T5, HepI R120A (Escherichia coli, UniProt P24173, R120A).
T5 construct: made in house; host or cells: E. coli One Shot BL-21-AI (stated for HepI in general)
T5 sequence (P24173 whole entry R120A): as the sequence (P24173 whole entry R61A) above, with A61R, R120A counted along it
The assay is described as follows: HepI inhibition, ADP/NADH coupled assay (R120A mutant). Format: biochemical, E. coli K12. As to the method:
as §1

T4 sequence (P24173 whole entry): as the sequence (P24173 whole entry R61A) above, with A61R counted along it

By Ki is commonly meant the dissociation constant of the complex between target and ligand, obtained from inhibition or displacement. Low readings indicate a stronger hold on the target, high ones a looser hold on the target. Usually kcat stands for the maximal rate divided by the concentration of active sites. As to `[H]/N=C(/N)N[C@H]1[C@H](O)[C@@H](O)[C@H](O[C@@H]2O[C@@H](C)[C@](O)(C=O)[C@H]2O[C@@H]2O[C@@H](CO)[C@H](O)[C@@H](O)[C@@H]2NC)[C@@H](N/C(N)=N\[H])[C@@H]1O` [Streptomycin], the figures for the inhibitory constant (Ki) in assay [1], in assay [2] and in assay [3] were 7.89 ± 3.59 µM, 6.66 ± 0.699 µM and 5.76 ± 0.485 µM, respectively. Besides, the “ΔΔG (kcal/mol) Exp” value in assay [1] (Arg61Ala relative to WT) is on record as 1.5 ± 0.2 kcal/mol; in assay [2] (Arg63Ala relative to WT) it was 1.4 ± 0.1 kcal/mol; in assay [3] (Lys64Ala relative to WT), 1.3 ± 0.1 kcal/mol. Moreover, the “ΔG (kcal/mol) Exp” value in assay [1] (Arg61Ala, from Ki) was -7.0 ± 0.2 kcal/mol; in assay [2] (Arg63Ala, from Ki) it was -7.1 ± 0.1 kcal/mol; in assay [3] (Lys64Ala, from Ki), -7.1 ± 0.1 kcal/mol. Further, the figures for the “kcat” value in assay [1] (HepI R61A in presence of inhibitor), in assay [2] (HepI R63A in presence of inhibitor) and in assay [3] (HepI K64A in presence of inhibitor) were 0.142 ± 0.031 s⁻¹, 0.198 ± 0.024 s⁻¹ and 0.117 ± 0.009 s⁻¹, respectively. In addition, the “Ki relative to WT” value in assay [1] (HepI R61A vs WT), in assay [2] (HepI R63A vs WT) and in assay [3] (HepI K64A vs WT) was “increased the Ki values an order of magnitude” each time. The “Increase in unfolding compared to apo HepI” value in assay [4] was ~ 20% and 15–20%. Further, the “Difference in melting temperature of HepI•ODLA complex caused by inhibitor” value in assay [4] is “not observed”. For the same compound, the “Melting temperature of HepI•ODLA complex with inhibitor” value in assay [4] (inhibitor added to HepI•ODLA) is “no different from substrate or product alone”. In addition, in assay [5], the “Blue shift of HepI tryptophan emission λmax” value was “no changes to the emission spectra”. The “Blue shift of HepI tryptophan emission λmax with ODLA and inhibitor” value in assay [5] is listed as “unperturbed”.
Compound `NC[C@H]1O[C@H](O[C@H]2[C@H](O)[C@@H](O[C@H]3O[C@H](CO)[C@@H](O)[C@H](N)[C@H]3O)[C@H](N)C[C@@H]2N)[C@H](N)C[C@@H]1O` [Tobramycin] showed a Ki in assay [6] of 422 ± 186 nM. Besides, the “ΔΔG (kcal/mol) Exp” value in assay [6] (Arg120Ala relative to WT) is on record as -0.6 ± 0.2 kcal/mol. Moreover, the “ΔG (kcal/mol) Exp” value in assay [6] (Arg120Ala, from Ki) is reported as -8.7 ± 0.2 kcal/mol. Also, the “Ki relative to WT” value in assay [6] (HepI R120A vs WT) is “~ twofold tighter; also recorded: lowering of the inhibition constant”. Also, in assay [4], the “Increase in unfolding compared to apo HepI” value came to 20% and the “Difference in melting temperature of HepI•ODLA complex caused by inhibitor” value is more than 30 °C. Also, in assay [4] (HepI plus ligand alone), the “Melting temperature (Tm) of HepI with ligand” value was ~ 37 °C. Also, the “Melt of HepI with ADPH and inhibitor” value in assay [4] (compared with HepI with ADPH alone) is “no changes from HepI with ADPH alone”. For the same compound, in assay [4] (inhibitor added to HepI•ODLA), the “Extent of unfolding of HepI•ODLA complex with inhibitor” value is given as “about 70%” and the “Melting temperature of HepI•ODLA complex with inhibitor” value was ~ 58 °C. In addition, in assay [5], the “Blue shift of HepI tryptophan emission λmax” value is “did not alter the λmax”; the “Blue shift of HepI tryptophan emission λmax with ODLA and inhibitor” value was found to be 6 nm.
